Reference: ChEMBL document CHEMBL1201862, “PubChem BioAssay data set” (2004)
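Where inhibition never reached the appropriate level, the endpoint shown equals the highest concentration tested. Otherwise, values were interpolated linearly from a five-concentration, 48-hour dose response in 96-well plates. GI50 marks 50% less growth.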 Calls of active or inactive are those of the source. Cut-off read from the data, not from the text of the source: active = GI50 up to about 1.1 µM and inactive = higher.

Key:
Experiment in all cases: growth of human tumour cells (NCI), 48 h
EKVX = system: EKVX
NCI-H226 = system: NCI-H226
MOLT-4 = system: MOLT-4
SN12C = system: SN12C
SK-MEL-2 = system: SK-MEL-2
SK-OV-3 = system: SK-OV-3
COLO 205 = system: COLO 205
786-0 = system: 786-0
HCT-116 = system: HCT-116
A549 = system: A549
UACC-62 = system: UACC-62
SNB-19 = system: SNB-19
M14 = system: M14
BT-549 = system: BT-549
SW-620 = system: SW-620
OVCAR-4 = system: OVCAR-4
SF-539 = system: SF-539
HOP-62 = system: HOP-62
TK-10 = system: TK-10
SR = system: SR
NCI/ADR-RES = system: NCI/ADR-RES
U-251 = system: U-251
NCI-H23 = system: NCI-H23
HT-29 = system: HT-29
HCT-15 = system: HCT-15
Hs-578T = system: Hs-578T
K562 = system: K562
UACC-257 = system: UACC-257
SNB-75 = system: SNB-75
HOP-92 = system: HOP-92
MDA-MB-435 = system: MDA-MB-435
CAKI-1 = system: CAKI-1
SF-295 = system: SF-295
MDA-MB-231 = system: MDA-MB-231
T47D = system: T47D
ACHN = system: ACHN
KM12 = system: KM12
RPMI-8226 = system: RPMI-8226
OVCAR-5 = system: OVCAR-5
OVCAR-3 = system: OVCAR-3
SF-268 = system: SF-268
IGROV-1 = system: IGROV-1
SK-MEL-28 = system: SK-MEL-28
PC-3 = system: PC-3
RXF 393 = system: RXF 393
LOX IMVI = system: LOX IMVI
NCI-H522 = system: NCI-H522
MDA-N = system: MDA-N
OVCAR-8 = system: OVCAR-8
CCRF-CEM = system: CCRF-CEM
HCC 2998 = system: HCC 2998
MCF7 = system: MCF7
Malme-3M = system: Malme-3M
DU-145 = system: DU-145
SK-MEL-5 = system: SK-MEL-5
UO-31 = system: UO-31
A498 = system: A498
NCI-H460 = system: NCI-H460
HL-60 = system: HL-60

`COC(=O)CNC(=O)c1cc(C)cc2c1Oc1c(cc(C)cc1C(=O)NCC(=O)OC)S2` was tested, and the GI50 (EKVX) was > 100 µM (inactive), the GI50 (NCI-H226) was > 100 µM (inactive) and the GI50 (MOLT-4) was 62.2 µM (inactive). For the same molecule, the GI50 (SN12C) was 57.8 µM (inactive), the GI50 (SK-MEL-2) was > 100 µM (inactive) and the GI50 (SK-OV-3) was 56 µM (inactive). For the same molecule, the GI50 (COLO 205) was 28.4 µM (inactive), the GI50 (786-0) was 39.4 µM (inactive) and the GI50 (HCT-116) was > 100 µM (inactive). The GI50 (A549) was 37.6 µM (inactive), the GI50 (UACC-62) was 34.1 µM (inactive) and the GI50 (SNB-19) was > 100 µM (inactive). For the same molecule, the GI50 (M14) was 42.6 µM (inactive), the GI50 (BT-549) was > 100 µM (inactive) and the GI50 (SW-620) was > 100 µM (inactive). For the same molecule, the GI50 (OVCAR-4) was > 100 µM (inactive), the GI50 (SF-539) was 21.3 µM (inactive) and the GI50 (HOP-62) was > 100 µM (inactive). For the same molecule, the GI50 (TK-10) was > 100 µM (inactive), the GI50 (SR) was 31 µM (inactive) and the GI50 (NCI/ADR-RES) was > 100 µM (inactive). The GI50 (U-251) was > 100 µM (inactive), the GI50 (NCI-H23) was 58.7 µM (inactive) and the GI50 (HT-29) was 47.1 µM (inactive). The GI50 (HCT-15) was 53.1 µM, the GI50 (Hs-578T) was 65.6 µM (inactive) and the GI50 (K562) was > 100 µM (inactive). For the same molecule, the GI50 (UACC-257) was 49.5 µM (inactive), the GI50 (SNB-75) was > 100 µM (inactive) and the GI50 (HOP-92) was 22.3 µM (inactive). The GI50 (MDA-MB-435) was > 100 µM (inactive), the GI50 (CAKI-1) was > 100 µM (inactive) and the GI50 (SF-295) was 56.9 µM (inactive). The GI50 (MDA-MB-231) was > 100 µM (inactive), the GI50 (T47D) was > 100 µM (inactive) and the GI50 (ACHN) was 25.6 µM (inactive). For the same molecule, the GI50 (KM12) was 81.7 µM (inactive), the GI50 (RPMI-8226) was 40 µM (inactive) and the GI50 (OVCAR-5) was > 100 µM (inactive). For the same molecule, the GI50 (OVCAR-3) was 38.5 µM (inactive), the GI50 (SF-268) was 99.8 µM (inactive) and the GI50 (IGROV-1) was > 100 µM (inactive). The GI50 (SK-MEL-28) was 47.8 µM (inactive), the GI50 (PC-3) was > 100 µM (inactive) and the GI50 (RXF 393) was 29.6 µM (inactive). For the same molecule, the GI50 (LOX IMVI) was 96.4 µM (inactive), the GI50 (NCI-H522) was 89.7 µM (inactive) and the GI50 (MDA-N) was > 100 µM (inactive). For the same molecule, the GI50 (OVCAR-8) was > 100 µM (inactive), the GI50 (CCRF-CEM) was 60.1 µM (inactive) and the GI50 (HCC 2998) was 38.5 µM (inactive). The GI50 (MCF7) was 98.9 µM (inactive), the GI50 (Malme-3M) was 17.9 µM (inactive) and the GI50 (DU-145) was 45.4 µM (inactive).

For `c1ccc(C(=NNc2nc3ccccc3[nH]2)c2ccccn2)nc1`, the GI50 (EKVX) was 0.929 µM (active), the GI50 (NCI-H226) was 0.0625 µM (active) and the GI50 (MOLT-4) was 0.015 µM (active). For the same molecule, the GI50 (SN12C) was 0.128 µM (active), the GI50 (SK-MEL-5) was 0.159 µM (active) and the GI50 (SK-MEL-2) was 12.9 µM (inactive). For the same molecule, the GI50 (SK-OV-3) was 0.103 µM (active), the GI50 (COLO 205) was 0.0257 µM (active) and the GI50 (786-0) was 0.123 µM (active). The GI50 (HCT-116) was 0.0832 µM (active), the GI50 (A549) was 0.3 µM (active) and the GI50 (UACC-62) was 0.222 µM (active). For the same molecule, the GI50 (SNB-19) was 0.33 µM (active), the GI50 (M14) was 0.126 µM (active) and the GI50 (BT-549) was 0.48 µM (active). The GI50 (SW-620) was 0.0698 µM (active), the GI50 (OVCAR-4) was 0.0592 µM (active) and the GI50 (SF-539) was 0.177 µM (active). The GI50 (HOP-62) was 0.207 µM (active), the GI50 (TK-10) was 0.121 µM (active) and the GI50 (SR) was 0.0371 µM (active). For the same molecule, the GI50 (NCI/ADR-RES) was 0.115 µM (active), the GI50 (U-251) was 0.171 µM (active) and the GI50 (UO-31) was 0.0847 µM (active). For the same molecule, the GI50 (NCI-H23) was 0.24 µM (active), the GI50 (HT-29) was 0.0221 µM (active) and the GI50 (HCT-15) was 0.115 µM. For the same molecule, the GI50 (Hs-578T) was 7.53 µM (inactive), the GI50 (K562) was 0.172 µM (active) and the GI50 (A498) was 0.36 µM (active). For the same molecule, the GI50 (UACC-257) was 0.145 µM (active), the GI50 (NCI-H460) was 0.134 µM (active) and the GI50 (SNB-75) was 0.218 µM (active). The GI50 (HOP-92) was 0.0232 µM (active), the GI50 (MDA-MB-435) was 0.348 µM (active) and the GI50 (CAKI-1) was 0.102 µM (active). For the same molecule, the GI50 (SF-295) was 2.13 µM (inactive), the GI50 (MDA-MB-231) was 0.166 µM (active) and the GI50 (T47D) was 0.0131 µM (active). The GI50 (ACHN) was 0.114 µM (active), the GI50 (KM12) was 0.298 µM (active) and the GI50 (RPMI-8226) was 0.129 µM (active). The GI50 (OVCAR-5) was 1.74 µM (inactive), the GI50 (OVCAR-3) was 0.0393 µM (active) and the GI50 (SF-268) was 0.13 µM (active). The GI50 (IGROV-1) was 0.112 µM (active), the GI50 (SK-MEL-28) was 0.185 µM (active) and the GI50 (PC-3) was 0.224 µM (active). For the same molecule, the GI50 (RXF 393) was 0.197 µM (active), the GI50 (LOX IMVI) was 0.172 µM (active) and the GI50 (NCI-H522) was 0.0288 µM (active). The GI50 (MDA-N) was 0.394 µM (active), the GI50 (OVCAR-8) was 0.0993 µM (active) and the GI50 (CCRF-CEM) was 0.0313 µM (active). For the same molecule, the GI50 (HCC 2998) was 15 µM (inactive), the GI50 (MCF7) was 0.143 µM (active) and the GI50 (DU-145) was 0.268 µM (active).

With `CCNc1nc(N)c(C(=O)c2cccs2)s1` the GI50 (EKVX) was 26.2 µM (inactive), the GI50 (NCI-H226) was 24.2 µM (inactive) and the GI50 (MOLT-4) was 17.6 µM (inactive). For the same molecule, the GI50 (SN12C) was 30 µM (inactive), the GI50 (SK-MEL-5) was 18.1 µM (inactive) and the GI50 (SK-MEL-2) was 16.5 µM (inactive). For the same molecule, the GI50 (SK-OV-3) was 36.4 µM (inactive), the GI50 (COLO 205) was 7.05 µM (inactive) and the GI50 (786-0) was 26.6 µM (inactive). The GI50 (HCT-116) was 9.86 µM (inactive), the GI50 (A549) was 29.8 µM (inactive) and the GI50 (UACC-62) was 24.2 µM (inactive). For the same molecule, the GI50 (SNB-19) was 40.7 µM (inactive), the GI50 (M14) was 37.8 µM (inactive) and the GI50 (BT-549) was 20.8 µM (inactive). The GI50 (SW-620) was 8.59 µM (inactive), the GI50 (OVCAR-4) was 21.1 µM (inactive) and the GI50 (SF-539) was 15.5 µM (inactive). The GI50 (HOP-62) was 30.9 µM (inactive), the GI50 (TK-10) was 48 µM (inactive) and the GI50 (NCI/ADR-RES) was 35 µM (inactive). For the same molecule, the GI50 (U-251) was 22.5 µM (inactive), the GI50 (UO-31) was 38 µM (inactive) and the GI50 (NCI-H23) was 20.9 µM (inactive). For the same molecule, the GI50 (HT-29) was 17.2 µM (inactive), the GI50 (HCT-15) was 14.9 µM and the GI50 (Hs-578T) was 38.1 µM (inactive). The GI50 (K562) was 25.9 µM (inactive), the GI50 (A498) was 31 µM (inactive) and the GI50 (UACC-257) was 46.9 µM (inactive). The GI50 (NCI-H460) was 20.4 µM (inactive), the GI50 (SNB-75) was 10.4 µM (inactive) and the GI50 (HOP-92) was 41.2 µM (inactive). The GI50 (MDA-MB-435) was 20.9 µM (inactive), the GI50 (CAKI-1) was 8.69 µM (inactive) and the GI50 (SF-295) was 34 µM (inactive). For the same molecule, the GI50 (MDA-MB-231) was 50.4 µM (inactive), the GI50 (T47D) was 19.1 µM (inactive) and the GI50 (ACHN) was 22.3 µM (inactive). For the same molecule, the GI50 (KM12) was 11.8 µM (inactive), the GI50 (OVCAR-5) was 31.3 µM (inactive) and the GI50 (OVCAR-3) was 22 µM (inactive). The GI50 (SF-268) was 32.8 µM (inactive), the GI50 (IGROV-1) was 10.6 µM (inactive) and the GI50 (SK-MEL-28) was 31 µM (inactive). For the same molecule, the GI50 (PC-3) was 31.5 µM (inactive), the GI50 (RXF 393) was 3.42 µM (inactive) and the GI50 (LOX IMVI) was 18.4 µM (inactive). The GI50 (NCI-H522) was 26.3 µM (inactive), the GI50 (MDA-N) was 25.6 µM (inactive) and the GI50 (HL-60) was 4.1 µM (inactive). The GI50 (OVCAR-8) was 24.7 µM (inactive), the GI50 (HCC 2998) was 34.3 µM (inactive) and the GI50 (MCF7) was 22 µM (inactive). For the same molecule, the GI50 (Malme-3M) was 43.3 µM (inactive) and the GI50 (DU-145) was 8.99 µM (inactive).
